The values below are quoted from earlier work in patent US10653698B2, “Methods of improving myocardial performance in Fontan patients using udenafil compositions” (priority 2014, dated 2020).

Series [1] has as its system children and young adults with single-ventricle physiology after the Fontan operation. Conditions: Shabanian et al. 2013; cited from earlier work.
In series [2] the test system is patients with Fontan circulation. Conditions: short term, once daily dosing; cited from earlier work.

For `CCCc1nn(C)c2c(=O)[nH]c(-c3cc(S(=O)(=O)N4CCN(C)CC4)ccc3OCC)nc12` [sildenafil], in series [1], the ventricular systolic elastance result is given as “increased” and the ventriculo-arterial coupling result was “improved”.
Turning to `CN1CC(=O)N2[C@H](c3ccc4c(c3)OCO4)c3[nH]c4ccccc4c3C[C@@H]2C1=O` [tadalafil], in series [2], the exercise capacity result was “unchanged”; the “ventilatory efficiency and oxygen saturation” value was “improved”.
